# Measured values as given in US8530471B2, “Therapeutic cyclopentane derivatives” (Allergan, Inc., priority 2008, dated 2013).
# Experiments:
# [1] = system: laser-induced hypertensive monkeys; experiment: Intraocular pressure (IOP) reduction in laser-induced hypertensive monkeys; type: in vivo
# normotensive dogs = experiment: Intraocular pressure (IOP) reduction in normotensive dogs; type: in vivo
# Procedure: Compounds such as those described in the above are tested in vivo to measure its ability to reduce intraocular pressure. Compound A is tested in normotensive dogs.
# Compound B is tested in normotensive dogs.
# [2] = system: lashes and adjacent hairs of patients; experiment: Observation of lashes in glaucoma patients treated in only one eye; type: in vivo, human; conditions: glaucoma patient, unilateral treatment
# Text: In the course of treating patients having glaucoma, treatment may only be appropriate in one eye. […] The lash appearance on the lids of the treated eyes would have appeared quite attractive if it represented a bilateral phenomenon. As a result of its asymmetric nature, the long lashes on one side could be construed as disturbing from a cosmetic standpoint. A systemic examination was preformed as a result of the asymmetric phenomenon. It soon became apparent that this altered appearance was not an isolated finding. […] Definite differences could be identified to varying degrees in the lashes and adjacent hairs of all patients who were taking the drug on a unilateral basis for longer than 6 months.
# The changes in the lashes were apparent on gross inspection in several patients once attention was focused on the issue. In those with light colored hair and lashes, the differences were only seen easily with the aid of the high magnification and lighting capabilities of the slit lamp biomicroscope. In the course of glaucoma follow-up examination, attention is generally immediately focused on the eye itself. As a result of the high power magnification needed only one eye is seen at a time and the eye is seen at a high enough power that the lashes are not in focus. […]
SMILES,intraocular pressure (IOP) change from baseline [1],intraocular pressure (IOP) change from baseline (normotensive dogs),lash appearance in treated eye versus non-treated eye [2]
CCCCCC(O)c1ccc([C@@H]2[C@@H](C/C=C\CCCC(=O)OCCN3CCOCC3)[C@H](C#N)C[C@H]2O)cc1 (some centres unmarked) [Compound B],decreases from baseline,decreases from baseline,
CCCCCC(O)c1ccc([C@@H]2[C@@H](C/C=C\CCCC(=O)OCCO)[C@H](C#N)C[C@H]2O)cc1 (some centres unmarked) [Compound A],decreases from baseline,decreases from baseline,
CCNC(=O)CCC/C=C\C[C@@H]1[C@@H](/C=C/[C@@H](O)CCc2ccccc2)[C@H](O)C[C@@H]1O [bimatoprost],,,"longer, thicker, and fuller in the treated eye than in the non-treated eye"
